US20120088759A1, “THIAZOLIDIN-4-ONE AND [1,3]-THIAZINAN-4-ONE COMPOUNDS AS OREXIN RECEPTOR ANTAGONISTS” (priority 2009, published 2012)
pIC50: −log10 of the molar value.

Tests used:
human orexin-2 receptor = target: T1, human orexin-2 receptor (Homo sapiens, UniProt O43614); assay: FLIPR intracellular calcium assay, orexin receptor antagonistic activity (OX2); type: cell-based; conditions: CHO cells expressing human orexin-2 receptor; 3 nM orexin-A; normalized to on-plate reference; *n = geometric mean from n values
T1 construct: expressed in transfected cells; host or cells: CHO (Chinese hamster ovary) cells, kept under G418
T1 sequence (O43614 1-444): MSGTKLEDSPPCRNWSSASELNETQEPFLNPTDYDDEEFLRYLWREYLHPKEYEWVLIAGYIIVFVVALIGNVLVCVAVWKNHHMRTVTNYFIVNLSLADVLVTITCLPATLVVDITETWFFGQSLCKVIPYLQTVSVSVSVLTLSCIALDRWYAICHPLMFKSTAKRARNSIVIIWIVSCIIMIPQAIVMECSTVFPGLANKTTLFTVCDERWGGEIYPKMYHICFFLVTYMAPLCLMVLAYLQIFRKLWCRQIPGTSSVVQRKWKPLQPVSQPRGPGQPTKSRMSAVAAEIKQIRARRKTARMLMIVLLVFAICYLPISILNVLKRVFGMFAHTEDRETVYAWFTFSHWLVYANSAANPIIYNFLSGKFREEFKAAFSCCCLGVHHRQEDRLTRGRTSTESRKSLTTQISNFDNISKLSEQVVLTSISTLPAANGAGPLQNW
Description: (§1) The orexin receptor antagonistic activity of the compounds of formula (I) is determined in accordance with the following experimental method.
(§2) Chinese hamster ovary (CHO) cells expressing the human orexin-1 receptor and the human orexin-2 receptor, respectively, are grown in culture medium (Ham F-12 with L-Glutamine) containing 300 μg/ml G418, 100 U/ml penicillin, 100 μg/ml streptomycin and 10% heat inactivated fetal calf serum (FCS). The cells are seeded at 20′000 cells/well into 384-well black clear bottom sterile plates (Greiner). The seeded plates are incubated overnight at 37° C. in 5% CO2.
(§3) Human orexin-A as an agonist is prepared as 1 mM stock solution in MeOH:water (1:1), diluted in HBSS containing 0.1% bovine serum albumin (BSA), NaHCO3: 0.375 g/l and 20 mM HEPES for use in the assay at a final concentration of 3 nM.
(§4) Antagonists are prepared as 10 mM stock solution in DMSO, then diluted in 384-well plates using DMSO followed by a transfer of the dilutions into in HBSS containing 0.1% bovine serum albumin (BSA), NaHCO3: 0.375 g/l and 20 mM HEPES. On the day of the assay, 50 μl of staining buffer (HBSS containing 1% FCS, 20 mM HEPES, NaHCO3: 0.375 g/l, 5 mM probenecid (Sigma) and 3 μM of the fluorescent calcium indicator fluo-4 AM (1 mM stock solution in DMSO, containing 10% pluronic) is added to each well. The 384-well cell-plates are incubated for 50 min at 37° C. in 5% CO2 followed by equilibration at rt for 30-120 min before measurement.
(§5) Within the Fluorescent Imaging Plate Reader (FLIPR Tetra, Molecular Devices), antagonists are added to the plate in a volume of 10 μl/well, incubated for 10 min and finally 10 μl/well of agonist is added. Fluorescence is measured for each well at 1 second intervals, and the height of each fluorescence peak is compared to the height of the fluorescence peak induced by 3 nM orexin-A with vehicle in place of antagonist. For each antagonist, the IC50 value (the concentration of compound needed to inhibit 50% of the agonistic response) is determined and normalized using the obtained IC50 value of a on-plate reference compound. Optimized conditions were achieved by adjustment of pipetting speed and cell splitting regime. The calculated IC50 values of the compounds may fluctuate depending on the daily cellular assay performance. Fluctuations of this kind are known to those skilled in the art.

human orexin-1 receptor = target: T2, human orexin-1 receptor (Homo sapiens, UniProt O43613); assay: FLIPR intracellular calcium assay, orexin receptor antagonistic activity (OX1); type: cell-based; conditions: CHO cells expressing human orexin-1 receptor; 3 nM orexin-A; normalized to on-plate reference; *n = geometric mean from n values
T2 construct: expressed in transfected cells; host or cells: CHO (Chinese hamster ovary) cells, kept under G418
T2 sequence (O43613 1-425): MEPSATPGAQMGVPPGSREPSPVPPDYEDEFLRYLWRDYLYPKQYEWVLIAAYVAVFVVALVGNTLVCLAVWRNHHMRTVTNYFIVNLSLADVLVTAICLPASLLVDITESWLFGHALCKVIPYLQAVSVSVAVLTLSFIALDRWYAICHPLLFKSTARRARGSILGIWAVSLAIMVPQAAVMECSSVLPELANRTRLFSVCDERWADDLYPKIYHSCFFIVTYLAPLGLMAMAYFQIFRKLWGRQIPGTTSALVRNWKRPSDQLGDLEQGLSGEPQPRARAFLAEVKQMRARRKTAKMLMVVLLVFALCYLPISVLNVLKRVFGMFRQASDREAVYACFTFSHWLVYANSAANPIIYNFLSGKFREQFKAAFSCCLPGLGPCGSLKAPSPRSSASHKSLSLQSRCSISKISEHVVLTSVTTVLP
Description: as §1, §2, §3, §4, §5

pIC50 (human orexin-2 receptor)	pIC50 (human orexin-1 receptor)	Compound
7.80	6.68	COc1cncc(OC)c1C1SCC(=O)N1Cc1ccc(OC(F)(F)F)cc1 (centres unmarked) [Example 28, 2-(3,5-Dimethoxy-pyridin-4-yl)-3-(4-trifluoromethoxy-benzyl)-thiazolidin-4-one]
7.68	6.43	CCOc1ccc(CN2C(=O)CS(=O)(=O)C2c2c(OC)cccc2OC)cc1 (centres unmarked) [Example 290, 2-(2,6-Dimethoxy-phenyl)-3-(4-ethoxy-benzyl)-1,1-dioxo-thiazolidin-4-one]
7.15	6.10	CCOc1ccccc1C1SCCC(=O)N1Cc1c(OC)cccc1OC (centres unmarked) [Example 43, 3-(2,6-Dimethoxy-benzyl)-2-(2-ethoxy-phenyl)-[1,3]thiazinan-4-one]
6.18	7.07	CCOc1ccc(CN2C(=O)C(C)(C)SC2c2c(OC)cccc2OC)cc1 (centres unmarked) [Example 175, 2-(2,6-Dimethoxy-phenyl)-3-(4-ethoxy-benzyl)-5,5-dimethyl-thiazolidin-4-one]
7.28	6.26	COc1ccc(Oc2ccc(CN3C(=O)CSC3c3c(OC)cccc3OC)cc2)nc1 (centres unmarked) [Example 286, 2-(2,6-Dimethoxy-phenyl)-3-[4-(5-methoxy-pyridin-2-yloxy)-benzyl]-thiazolidin-4-one]
7.80	6.25	COc1ccnc(OC)c1C1SCC(=O)N1Cc1ccc(OC(F)(F)F)cc1 (centres unmarked) [Example 25, 2-(2,4-Dimethoxy-pyridin-3-yl)-3-(4-trifluoromethoxy-benzyl)-thiazolidin-4-one]
7.82	6.84	COc1cccc(OC)c1C1SCC(=O)N1Cc1ccc(OC(F)(F)F)cc1 (centres unmarked) [Example 2, 2-(2,6-Dimethoxy-phenyl)-3-(4-trifluoromethoxy-benzyl)-thiazolidin-4-one]
6.53	7.70	COc1cccc(OC)c1C1SC(C)(C)C(=O)N1Cc1ccc2ccccc2c1 (centres unmarked) [Example 176, 2-(2,6-Dimethoxy-phenyl)-5,5-dimethyl-3-naphthalen-2-ylmethyl-thiazolidin-4-one]
7.80	6.74	COc1cccc(OC)c1C1N(Cc2ccc(OC(C)C)cc2)C(=O)CS1(=O)=O (centres unmarked) [Example 289, 2-(2,6-Dimethoxy-phenyl)-3-(4-isopropoxy-benzyl)-1,1-dioxo-thiazolidin-4-one]
7.44	5.98	CCOc1ccc(CN2C(=O)CSC2c2c(OC)cncc2OC)cc1 (centres unmarked) [Example 29, 2-(3,5-Dimethoxy-pyridin-4-yl)-3-(4-ethoxy-benzyl)-thiazolidin-4-one]
7.68	5.85	CCOc1ccccc1C1SCC(=O)N1Cc1ccc(F)c(F)c1 (centres unmarked) [Example 65, 3-(3,4-Difluoro-benzyl)-2-(2-ethoxy-phenyl)-thiazolidin-4-one]
7.89	6.61	COc1cccc(OC)c1C1SCC(=O)N1Cc1ccc(Oc2ccccc2)cc1 (centres unmarked) [Example 7, 2-(2,6-Dimethoxy-phenyl)-3-(4-phenoxy-benzyl)-thiazolidin-4-one]
8.10	6.39	COc1cccc(OC)c1C1SCC(=O)N1Cc1ccc(Oc2ccccn2)cc1 (centres unmarked) [Example 277, 2-(2,6-Dimethoxy-phenyl)-3-[4-(pyridin-2-yloxy)-benzyl]-thiazolidin-4-one]
7.62	6.34	CCOc1cccc(OC)c1C1SCC(=O)N1Cc1ccc(OC(F)(F)F)cc1 (centres unmarked) [Example 16, 2-(2-Ethoxy-6-methoxy-phenyl)-3-(4-trifluoromethoxy-benzyl)-thiazolidin-4-one]
8.00	5.99	COc1cccc(OC)c1C1SCC(=O)N1Cc1ccc(Oc2cccnc2)cc1 (centres unmarked) [Example 278, 2-(2,6-Dimethoxy-phenyl)-3-[4-(pyridin-3-yloxy)-benzyl]-thiazolidin-4-one]
6.35	6.45	COc1cccc(OC)c1C1SC(C)C(=O)N1Cc1ccc2ccccc2n1 (centres unmarked) [Example 30, 2-(2,6-Dimethoxy-phenyl)-5-methyl-3-quinolin-2-ylmethyl-thiazolidin-4-one]
7.34	6.05	CCOc1ccc(CN2C(=O)CSC2c2c(OC)ccc3c2OCO3)cc1 (centres unmarked) [Example 11, 3-(4-Ethoxy-benzyl)-2-(5-methoxy-benzo[1,3]dioxol-4-yl)-thiazolidin-4-one]
6.90	5.37	CCOc1ccc(CN2C(=O)CSC2c2c(OC)ccnc2OC)cc1 (centres unmarked) [Example 26, 2-(2,4-Dimethoxy-pyridin-3-yl)-3-(4-ethoxy-benzyl)-thiazolidin-4-one]
7.57	6.42	COc1cccc(OC)c1C1SCC(=O)N1Cc1ccc(OC(F)F)cc1 (centres unmarked) [Example 4, 3-(4-Difluoromethoxy-benzyl)-2-(2,6-dimethoxy-phenyl)-thiazolidin-4-one]
8.22	7.82	COc1ccc2cc(CN3C(=O)CSC3c3c(OC)cccc3OC)ccc2c1 (centres unmarked) [Example 32, 2-(2,6-Dimethoxy-phenyl)-3-(6-methoxy-naphthalen-2-ylmethyl)-thiazolidin-4-one]
6.90	5.74	COc1cccc(OC)c1C1SCC(=O)N1Cc1ccc(-c2ccccc2)cc1 (centres unmarked) [Example 203, 3-Biphenyl-4-ylmethyl-2-(2,6-dimethoxy-phenyl)-thiazolidin-4-one]
7.80	6.77	COc1cccc(OC)c1C1SCC(=O)N1Cc1ccc(OC(C)C)cc1 (centres unmarked) [Example 5, 2-(2,6-Dimethoxy-phenyl)-3-(4-isopropoxy-benzyl)-thiazolidin-4-one]
7.37	6.61	CCOc1ccc(CN2C(=O)C(C)SC2c2c(OC)cccc2OC)cc1 (centres unmarked) [Example 13, 2-(2,6-Dimethoxy-phenyl)-3-(4-ethoxy-benzyl)-5-methyl-thiazolidin-4-one]
7.89	5.64	CCOc1ccccc1C1SCC(=O)N1Cc1cccc(OC(F)(F)F)c1 (centres unmarked) [Example 81, 2-(2-Ethoxy-phenyl)-3-(3-trifluoromethoxy-benzyl)-thiazolidin-4-one]
7.82	6.44	COc1cccc(OC)c1C1SC(C)C(=O)N1Cc1ccc(OC(F)(F)F)cc1 (centres unmarked) [Example 17, 2-(2,6-Dimethoxy-phenyl)-5-methyl-3-(4-trifluoromethoxy-benzyl)-thiazolidin-4-one]
8.10	6.98	COc1cc(F)cc(OC)c1C1SCC(=O)N1Cc1ccc(OC(F)(F)F)cc1 (centres unmarked) [Example 33, 2-(4-Fluoro-2,6-dimethoxy-phenyl)-3-(4-trifluoromethoxy-benzyl)-thiazolidin-4-one]

Compound	pIC50 (human orexin-2 receptor)	pIC50 (human orexin-1 receptor)
2-[2-(2-Hydroxy-ethoxy)-6-methoxy-phenyl]-3-(4-trifluoromethoxy-benzyl)-thiazolidin-4-one [Example 268]	7.35	5.74
COc1cccc(OC)c1C1SCC(=O)N1Cc1ccc(OC(C)(C)C)cc1 (centres unmarked) [Example 3, 3-(4-tert-Butoxy-benzyl)-2-(2,6-dimethoxy-phenyl)-thiazolidin-4-one]	6.92	5.85
